Laboratory results reported in the NIST ThermoML archive (doi:10.1016/j.tca.2015.08.013).

Conditions: for surface tension liquid-gas: Drop volume; for mass density / kinematic viscosity / speed of sound / vapor or sublimation pressure: Liquid; for mass density: Vibrating tube method; for kinematic viscosity / speed of sound: 101.33 kPa; for kinematic viscosity: Capillary tube (Ostwald / Ubbelohde) method; for speed of sound: Sing-around technique in a fixed-path interferometer; for vapor or sublimation pressure: Ebulliometric method (Recirculating still)

c1ccoc1 [furan]
Conditions	kinematic viscosity [m2/s]	speed of sound [m/s]	surface tension liquid-gas [mN/m]	vapor or sublimation pressure [kPa]
278.15 K	4.59e-07	1228.1	26.03	–
280.65 K	4.48e-07	1216.2	25.69	–
283.15 K	4.39e-07	1204.5	25.32	–
284.4 K	–	–	–	45.59
285.65 K	4.3e-07	1192.8	24.97	–
285.86 K	–	–	–	48.66
287.16 K	–	–	–	51.63
288.15 K	4.2e-07	1181	24.59	–
288.34 K	–	–	–	54.23
289.2 K	–	–	–	56.05
290.4 K	–	–	–	59.18
290.65 K	4.09e-07	1169.2	24.18	–
291.7 K	–	–	–	62.26
292.2 K	–	–	–	63.6
292.79 K	–	–	–	64.53
293.15 K	3.99e-07	1157.4	23.79	–
294.55 K	–	–	–	69.25
295.55 K	–	–	–	72.4
295.65 K	3.89e-07	1145.3	23.35	–
296.9 K	–	–	–	76.25
297.36 K	–	–	–	77.63
298.15 K	3.79e-07	1133.1	22.94	–
298.44 K	–	–	–	80.9
299.63 K	–	–	–	84.59
300.65 K	3.7e-07	1120.9	22.55	–
300.76 K	–	–	–	88.22
301.52 K	–	–	–	90.81
302.4 K	–	–	–	93.89
303.15 K	3.61e-07	1108.8	22.08	–
303.86 K	–	–	–	99.07
304.46 K	–	–	–	101.33

Conditions	mass density [kg/m3]
278.15 K, 99 kPa	959.086
280.65 K, 99 kPa	955.729
283.15 K, 99 kPa	952.358
283.15 K, 100 kPa	952.36
283.15 K, 2500 kPa	954.38
283.15 K, 5000 kPa	956.94
283.15 K, 7500 kPa	959.39
283.15 K, 10000 kPa	961.81
283.15 K, 20000 kPa	970.97
283.15 K, 30000 kPa	979.35
283.15 K, 40000 kPa	987.2
283.15 K, 50000 kPa	994.5
283.15 K, 60000 kPa	1001.42
285.65 K, 99 kPa	948.976
288.15 K, 99 kPa	945.579
288.15 K, 100 kPa	945.58
288.15 K, 2500 kPa	947.81
288.15 K, 5000 kPa	950.42
288.15 K, 7500 kPa	953.03
288.15 K, 10000 kPa	955.59
288.15 K, 20000 kPa	965.03
288.15 K, 30000 kPa	973.69
288.15 K, 40000 kPa	981.69
288.15 K, 50000 kPa	989.18
288.15 K, 60000 kPa	996.21
290.65 K, 99 kPa	942.167
293.15 K, 99 kPa	938.739
293.15 K, 100 kPa	938.74
293.15 K, 2500 kPa	940.99
293.15 K, 5000 kPa	943.7
293.15 K, 7500 kPa	946.38
293.15 K, 10000 kPa	948.97
293.15 K, 20000 kPa	958.75
293.15 K, 30000 kPa	967.71
293.15 K, 40000 kPa	976.04
293.15 K, 50000 kPa	983.77
293.15 K, 60000 kPa	990.98
295.65 K, 99 kPa	935.294
298.15 K, 99 kPa	931.835
298.15 K, 100 kPa	931.84
298.15 K, 2500 kPa	934.31
298.15 K, 5000 kPa	937.14
298.15 K, 7500 kPa	939.92
298.15 K, 10000 kPa	942.68
298.15 K, 20000 kPa	952.79
298.15 K, 30000 kPa	961.99
298.15 K, 40000 kPa	970.53
298.15 K, 50000 kPa	978.42
298.15 K, 60000 kPa	985.81
300.65 K, 99 kPa	928.357
303.15 K, 99 kPa	924.861
303.15 K, 100 kPa	924.86
303.15 K, 2500 kPa	927.4
303.15 K, 5000 kPa	930.33
303.15 K, 7500 kPa	933.21
303.15 K, 10000 kPa	936
303.15 K, 20000 kPa	946.46
303.15 K, 30000 kPa	956.04
303.15 K, 40000 kPa	964.82
303.15 K, 50000 kPa	972.99
303.15 K, 60000 kPa	980.62
308.15 K, 2500 kPa	920.6
308.15 K, 5000 kPa	923.71
308.15 K, 7500 kPa	926.73
308.15 K, 10000 kPa	929.66
308.15 K, 20000 kPa	940.5
308.15 K, 30000 kPa	950.3
308.15 K, 40000 kPa	959.34
308.15 K, 50000 kPa	967.69
308.15 K, 60000 kPa	975.44
313.15 K, 2500 kPa	913.48
313.15 K, 5000 kPa	916.68
313.15 K, 7500 kPa	919.8
313.15 K, 10000 kPa	922.81
313.15 K, 20000 kPa	934.04
313.15 K, 30000 kPa	944.27
313.15 K, 40000 kPa	953.57
313.15 K, 50000 kPa	962.21
313.15 K, 60000 kPa	970.23
318.15 K, 2500 kPa	906.59
318.15 K, 5000 kPa	909.88
318.15 K, 7500 kPa	913.18
318.15 K, 10000 kPa	916.44
318.15 K, 20000 kPa	928.06
318.15 K, 30000 kPa	938.56
318.15 K, 40000 kPa	948.09
318.15 K, 50000 kPa	956.88
318.15 K, 60000 kPa	965.06
323.15 K, 2500 kPa	899.25
323.15 K, 5000 kPa	902.71
323.15 K, 7500 kPa	906.1
323.15 K, 10000 kPa	909.42
323.15 K, 20000 kPa	921.53
323.15 K, 30000 kPa	932.47
323.15 K, 40000 kPa	942.39
323.15 K, 50000 kPa	951.44
323.15 K, 60000 kPa	959.86
328.15 K, 2500 kPa	892.18
328.15 K, 5000 kPa	895.9
328.15 K, 7500 kPa	899.49
328.15 K, 10000 kPa	902.97
328.15 K, 20000 kPa	915.52
328.15 K, 30000 kPa	926.72
328.15 K, 40000 kPa	936.8
328.15 K, 50000 kPa	946.08
328.15 K, 60000 kPa	954.71
333.15 K, 2500 kPa	884.69
333.15 K, 5000 kPa	888.51
333.15 K, 7500 kPa	892.17
333.15 K, 10000 kPa	895.74
333.15 K, 20000 kPa	908.84
333.15 K, 30000 kPa	920.52
333.15 K, 40000 kPa	931.04
333.15 K, 50000 kPa	940.62
333.15 K, 60000 kPa	949.48
338.15 K, 2500 kPa	877.34
338.15 K, 5000 kPa	881.44
338.15 K, 7500 kPa	885.37
338.15 K, 10000 kPa	889.16
338.15 K, 20000 kPa	902.71
338.15 K, 30000 kPa	914.72
338.15 K, 40000 kPa	925.5
338.15 K, 50000 kPa	935.32
338.15 K, 60000 kPa	944.34
